Experimental findings from patent US20240158348A1, “HERBICIDAL CYCLIC AMIDES N-SUBSTITUTED WITH A HALOALKYLSULFONYLANILIDE GROUP” (FMC Corporation, priority 2021, published 2024) are described below.

Holding throughout (type): in vivo
The subject of test [1] is ryegrass, Italian (Italian ryegrass, Lolium multiflorum). Nature of the test: Test A preemergence, Italian ryegrass. The note with it: pre-emergence, 240 h, 0 to 100 scale, 10 days, read-out: Plant response rating, Ryegrass, Italian; for pest or weed control at 31 g/ha: 31 g ai/ha; for pest or weed control at 125 g/ha: 125 g ai/ha. The text has this: (§1) Seeds of plant species selected from barnyardgrass (Echinochloa crus-galli), blackgrass (Alopecurus myosuroides), corn (Zea mays), foxtail, giant (giant foxtail, Setaria faberi), goosegrass (Eleusine indica), kochia (Bassia scoparia), oat, wild (wild oat, Avena fatua), pigweed, palmer (palmer amaranth, Amaranthus palmeri), pigweed, redroot (redroot pigweed, Amaranthus retroflexus), ragweed (common ragweed, Ambrosia artemisiifolia), ryegrass, Italian (Italian ryegrass, Lolium multiflorum), soybean (Glycine max), and wheat (Triticum aestivum) were planted into a blend of loam soil and sand and treated preemergence with a directed soil spray using test chemicals formulated in a non-phytotoxic solvent mixture which included a surfactant.
(§2) At the same time, plants selected from these crop and weed species and also galium (catchweed bedstraw, Galium aparine) and horseweed (Erigeron canadensis) were planted in pots containing the same blend of loam soil and sand and treated with postemergence applications of test chemicals formulated in the same manner. Plants ranged in height from 2 to 10 cm and were in the one- to two-leaf stage for the postemergence treatment. Treated plants and untreated controls were maintained in a greenhouse for 10 days, after which time all treated plants were compared to untreated controls and visually evaluated for injury. Plant response ratings, summarized in Table A, are based on a 0 to 100 scale where 0 is no effect and 100 is complete control. A dash (-) response means no test result.

For test [2], the system named is foxtail, giant (giant foxtail, Setaria faberi). Kind of test: Test A postemergence, giant foxtail. The settings on record: post-emergence, 240 h, 0 to 100 scale, 10 days, read-out: Plant response rating, Foxtail, Giant; for pest or weed control at 31 g/ha: 31 g ai/ha; for pest or weed control at 125 g/ha: 125 g ai/ha.
Text: as §1, §2

A further test relates to kochia (Bassia scoparia). Nature of the test: Test A postemergence, kochia. The note with it: post-emergence, 240 h, 0 to 100 scale, 10 days, read-out: Plant response rating, Kochia; for pest or weed control at 31 g/ha: 31 g ai/ha; for pest or weed control at 125 g/ha: 125 g ai/ha.
Text: as §1, §2

Test [3] relates to barnyardgrass (Echinochloa crusgalli). Nature of the test: Test B flooded paddy test, barnyardgrass. The note with it: Echinochloa crus-galli; 250 g ai/ha, Flood; scale of 0 to 100 where 0 is no effect and 100 is complete control; visually evaluated after 10 to 14 days; read-out: Plant response rating, Barnyardgrass. On the procedure:
(§3) Plant species in the flooded paddy test selected from barnyardgrass (Echinochloa crusgalli), ducksalad (Heteranthera limosa), rice (Oryza sativa), and sedge, umbrella (small-flower umbrella sedge, Cyperus difformis) were grown to the 2-leaf stage for testing. At time of treatment, test pots were flooded to 3 cm above the soil surface, treated by application of test compounds directly to the paddy water, and then maintained at that water depth for the duration of the test. Treated plants and controls were maintained in a greenhouse for 10 to 14 days, after which time all species were compared to controls and visually evaluated. Plant response ratings, summarized in Table B, are based on a scale of 0 to 100 where 0 is no effect and 100 is complete control. A dash (-) response means no test result.

For the next test, the system named is rice (Oryza sativa). Nature of the test: Test B flooded paddy test, rice. The note with it: 250 g ai/ha, Flood, scale of 0 to 100 where 0 is no effect and 100 is complete control, visually evaluated after 10 to 14 days, read-out: Plant response rating, Rice. On the procedure:
as §3

Test [4] relates to sedge, umbrella (small-flower umbrella sedge, Cyperus difformis). Kind of test: Test B flooded paddy test, umbrella sedge. The note with it: 250 g ai/ha, Flood, scale of 0 to 100 where 0 is no effect and 100 is complete control, visually evaluated after 10 to 14 days, read-out: Plant response rating, Sedge, Umbrella. On the procedure: as §3
Test [5] relates to oat, wild (wild oat, Avena fatua). Nature of the test: Test A preemergence, wild oat. The note with it: 0 to 100 scale, 10 days.
Text: as §1, §2

The next test concerns soybean (Glycine max). Kind of test: Test A preemergence, soybean. The settings on record: 0 to 100 scale, 10 days.
Text: as §1, §2

Molecules are shown by their SMILES.

For `C#CCOC1CCN(c2cc(NS(=O)(=O)C(F)(F)F)c(C)cc2C)C1=O` (stereo not drawn) [Compound 1, N-[2,4-dimethyl-5-[2-oxo-3-(2-propyn-1-yloxy)-1-pyrrolidinyl]phenyl]-1,1,1-trifluoromethanesulfonamide], the pest or weed control at 31 g/ha in test [1] is 100%; in test [2] it was 40%; with kochia (Bassia scoparia), 30%. For the same compound, the pest or weed control at 125 g/ha in test [1] amounted to 100%; in test [2], 60%; with kochia (Bassia scoparia) it was 80%. For the same compound, the pest or weed control at 250 g/ha in test [3] was 60%; in test [4], 90%. In addition, in the test on rice (Oryza sativa), the plant injury at 250 g/ha turned out to be 30%.

In the case of `C=CCOC1CCN(c2cc(NS(=O)(=O)C(F)(F)F)c(C)cc2C)C1=O` (stereo not drawn) [Compound 2, N-[2,4-dimethyl-5-[2-oxo-3-(2-propen-1-yloxy)-1-pyrrolidinyl]phenyl]-1,1,1-trifluoromethanesulfonamide], the pest or weed control at 31 g/ha in test [1] worked out at 90%; in test [2] it was 30%; in the test on kochia (Bassia scoparia) it was 20%. The values for the pest or weed control at 125 g/ha (in test [1]; in test [2]; in the test on kochia (Bassia scoparia)) were 100%, 50% and 60%, respectively. Also, the pest or weed control at 250 g/ha was 40% in test [3] and 85% in test [4]. The plant injury at 250 g/ha in the test with rice (Oryza sativa) was 10%.

In the case of `Cc1cc(C)c(N2CCC(OC3CC3)C2=O)cc1NS(=O)(=O)C(F)(F)F` (stereo not drawn) [Compound 3, N-[5-[3-(cyclopropyloxy)-2-oxo-1-pyrrolidinyl]-2,4-dimethylphenyl]-1,1,1-trifluoromethanesulfonamide], the figures for the “Plant response rating, Oat, Wild” value in test [5] (31 g ai/ha) and in test [5] (125 g ai/ha) were 70 and 100, respectively. Moreover, the pest or weed control at 31 g/ha in test [1] stood at 90%; in test [2] it was 70%; with kochia (Bassia scoparia), 50%. Further, the pest or weed control at 125 g/ha in test [1] was found to be 100%; in test [2], 90%; in the test on kochia (Bassia scoparia), 100%. In addition, the “Plant response rating, Soybean” value in the test with soybean (Glycine max) (31 g ai/ha) came to 30; with soybean (Glycine max) (125 g ai/ha), 80. The pest or weed control at 250 g/ha is 90% in test [3] and 98% in test [4]. Moreover, the plant injury at 250 g/ha in the test on rice (Oryza sativa) is 50%.

Take `Cc1cc(C)c(N2CCC(OC3CCC3)C2=O)cc1NS(=O)(=O)C(F)(F)F` (stereo not drawn) [Compound 4, N-[5-[3-(cyclobutyloxy)-2-oxo-1-pyrrolidinyl]-2,4-dimethylphenyl]-1,1,1-trifluoromethanesulfonamide]: the figures for the “Plant response rating, Oat, Wild” value in test [5] (31 g ai/ha) and in test [5] (125 g ai/ha) were 80 and 100, respectively. Moreover, the values for the pest or weed control at 31 g/ha (in test [1]; in test [2]; with kochia (Bassia scoparia)) were 100%, 40% and 60%, respectively. In addition, the figures for the pest or weed control at 125 g/ha (in test [1]; in test [2]; in the test on kochia (Bassia scoparia)) were 100%, 80% and 90%, respectively. In addition, the “Plant response rating, Soybean” value with soybean (Glycine max) (31 g ai/ha) is recorded as 70; in the test with soybean (Glycine max) (125 g ai/ha) it was 100. The pest or weed control at 250 g/ha in test [3] came to 45%; in test [4], 100%. Moreover, in the test with rice (Oryza sativa), the plant injury at 250 g/ha stood at 0%.

In the case of `Cc1cc(C)c(N(COC(=O)C(C)(C)C)S(=O)(=O)C(F)(F)F)cc1N1CCC(OC2CCCC2)C1=O` (stereo not drawn) [Compound 5, [[5-[3-(cyclopentyloxy)-2-oxo-1-pyrrolidinyl]-2,4-dimethylphenyl][(trifluoromethyl)sulfonyl]amino]methyl 2,2-dimethylpropanoate], the “Plant response rating, Oat, Wild” value in test [5] (31 g ai/ha) was 0; in test [5] (125 g ai/ha), 40. Besides, the pest or weed control at 31 g/ha in test [1] stood at 20%; in test [2], 0%; with kochia (Bassia scoparia), 20%. In addition, the pest or weed control at 125 g/ha is 90% in test [1], 80% in test [2] and 70% in the test with kochia (Bassia scoparia). The figures for the “Plant response rating, Soybean” value in the test on soybean (Glycine max) (31 g ai/ha) and in the test on soybean (Glycine max) (125 g ai/ha) were 0 and 20, respectively. For the same compound, the pest or weed control at 250 g/ha in test [3] stood at 95%; in test [4] it was 85%. Further, in the test on rice (Oryza sativa), the plant injury at 250 g/ha came out at 0%.

For `Cc1cc(C)c(N2CCC(OC3CCCC3)C2=O)cc1NS(=O)(=O)C(F)(F)F` (stereo not drawn) [Compound 6, N-[5-[3-(cyclopentyloxy)-2-oxo-1-pyrrolidinyl]-2,4-dimethylphenyl]-1,1,1-trifluoromethanesulfonamide], the “Plant response rating, Oat, Wild” value in test [5] (31 g ai/ha) stood at 70; in test [5] (125 g ai/ha) it was 90. The pest or weed control at 31 g/ha in test [1] worked out at 80%; in test [2] it was 10%; in the test with kochia (Bassia scoparia), 20%. In addition, the pest or weed control at 125 g/ha in test [1] was determined as 90%; in test [2] it was 60%; in the test with kochia (Bassia scoparia), 80%. Moreover, the “Plant response rating, Soybean” value came to 50 with soybean (Glycine max) (31 g ai/ha) and 90 in the test on soybean (Glycine max) (125 g ai/ha). The pest or weed control at 250 g/ha in test [3] stood at 30%; in test [4], 75%. For the same compound, in the test on rice (Oryza sativa), the plant injury at 250 g/ha stood at 10%.

As to `Cc1cc(C)c(N(COC(=O)C(C)(C)C)S(=O)(=O)C(F)(F)F)cc1N1CCC(OC2CC2)C1=O` (stereo not drawn) [Compound 7, [[5-[3-(cyclopropyloxy)-2-oxo-1-pyrrolidinyl]-2,4-dimethylphenyl][(trifluoromethyl)sulfonyl]amino]methyl 2,2-dimethylpropanoate], the “Plant response rating, Oat, Wild” value in test [5] (31 g ai/ha) was 20; in test [5] (125 g ai/ha), 100. The results for the pest or weed control at 31 g/ha (in test [1]; in test [2]; with kochia (Bassia scoparia)) were 100%, 60% and 70%, respectively. Further, the pest or weed control at 125 g/ha in test [1] came to 100%; in test [2], 90%; in the test with kochia (Bassia scoparia), 80%. The “Plant response rating, Soybean” value in the test with soybean (Glycine max) (31 g ai/ha) was 20; in the test on soybean (Glycine max) (125 g ai/ha), 40. Also, the pest or weed control at 250 g/ha was found to be 98% in test [3] and 90% in test [4]. For the same compound, the plant injury at 250 g/ha in the test on rice (Oryza sativa) was 30%.

`Cc1cc(C)c(N(COC(=O)C(C)(C)C)S(=O)(=O)C(F)(F)F)cc1N1CCC(OC2CCC2)C1=O` (stereo not drawn) [Compound 8, [[5-[3-(cyclobutyloxy)-2-oxo-1-pyrrolidinyl]-2,4-dimethylphenyl][(trifluoromethyl)sulfonyl]amino]methyl 2,2-dimethylpropanoate]: the “Plant response rating, Oat, Wild” value was found to be 0 in test [5] (31 g ai/ha) and 70 in test [5] (125 g ai/ha). The pest or weed control at 31 g/ha in test [1] came out at 50%; in test [2], 30%; in the test with kochia (Bassia scoparia) it was 60%. In addition, the pest or weed control at 125 g/ha in test [1] came out at 90%; in test [2] it was 80%; with kochia (Bassia scoparia), 80%. Also, the “Plant response rating, Soybean” value in the test with soybean (Glycine max) (31 g ai/ha) stood at 40; in the test on soybean (Glycine max) (125 g ai/ha) it was 50. The pest or weed control at 250 g/ha in test [3] came to 98%; in test [4], 95%. The plant injury at 250 g/ha in the test on rice (Oryza sativa) was determined as 35%.
